Results taken from patent publication EP2073012A1, “Method for the isolation and identification of ADP-ribosylated molecules” (Fondazione Telethon, priority 2007, dated 2009).

Tests used:
Af1521 = biological target: T1, Af1521 (Archaeoglobus fulgidus, UniProt O28751); conditions: cited from earlier work
T1 sequence (O28751 1-192): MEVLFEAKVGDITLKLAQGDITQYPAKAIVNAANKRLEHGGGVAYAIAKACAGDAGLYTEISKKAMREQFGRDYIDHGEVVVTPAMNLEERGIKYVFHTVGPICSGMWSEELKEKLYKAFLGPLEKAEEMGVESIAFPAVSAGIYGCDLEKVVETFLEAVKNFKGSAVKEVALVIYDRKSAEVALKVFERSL

BAL9 = conditions: cited from earlier work
His6-mAf1521 = biological target: T2, His6-mAf1521 (Archaeoglobus fulgidus, UniProt O28751); assay: Pull-down displacement assay: free ADP-ribose added after pull-down of [32P]-ADP-ribosylated β subunit by resin-bound His6-mAf1521; format: binding
T2 construct: made in house
T2 sequence (O28751 1-192): T1 sequence (O28751 1-192)
Method: Samples (10 µg plasma membranes) were incubated with 50 µl ADP-ribosylation buffer (50 mM potassium phosphate buffer (PFB), pH 7.4, 5 mM MgCl2, 4 mM dithiothreitol (DTT), 10 µM GTPγS, 700 µM β-NAD^+ and 4.5 µCi [^32P]-NAD (specific activity: 1,000 Ci/mmol)) at 37 °C for 60 min, unless otherwise specified. Under these conditions, 10% of the total β was mono-ADP-ribosylated; to obtain maximal modification (80%-100% of total β mono-ADP-ribosylated), the incubation was prolonged to 12 h at 30 °C. The in-vitro PT-catalyzed ADP-ribosylation was performed as previously described^34, using either total membranes or purified proteins (β-action or SLC25A5; Sigma and Abnova Corporation, respectively). […]
Plasma membranes (10 µg for each sample) were ADP-ribosylated as described above, washed with 50 mM PFB, pH 7.4, to remove unbound NAD, and then centrifuged at 16.000x g for 15 min at 4 °C. […] Then the resin was washed three times with RIPA buffer plus 10 mM imidazole, and finally both the washed resin and the unbound fraction (one-eight of the total volume) were diluted in 50 µl Laemmli buffer, boiled and analysed by 10% SDS-PAGE. […] The gels underwent colloidal Coomassie blue (blue code, Pierce) or silver staining, and the bands of interest were analysed by MALDI-TOF-MS. […]

| excess of ADP-ribose able to displace the immobilized ADP-ribosylated β subunit from the His6-mAf1521-resin complex (His6-mAf1521; molar excess over bound β subunit) [fold] | ADP-ribose concentration to displace all of the His6-mAf1521-bound [32P]-ADP-ribosylated β subunit (His6-mAf1521; ∼400 pmol ADP-ribose against ∼4 pmol bound β subunit) [µM] | Compound | fold lower affinity than free ADP-ribose (Af1521) [fold] | fold lower affinity than free ADP-ribose (BAL9) [fold] |
| --- | --- | --- | --- | --- |
| – | – | NC(=O)c1ccc[n+]([C@@H]2O[C@H](COP(=O)([O-])OP(=O)(O)OC[C@H]3O[C@@H](n4cnc5c(N)ncnc54)[C@H](O)[C@@H]3O)[C@@H](O)[C@H]2O)c1 [NAD] | > 1000 | > 1000 |
| ~100 | 100 | ADP-ribose | – | – |
| – | – | Nc1ncnc2c1ncn2[C@@H]1O[C@H](CO)[C@@H](O)[C@H]1O [adenosine] | > 1000 | > 1000 |
